From a melting point compilation (Tetko et al.; mined from patent text by program, amines drawn as free bases though some values may be those of a salt)

Structure (SMILES) | melting point
Cc1cccc([C@H]2[C@H](C(=O)Nc3ccc(F)c(F)c3)C2(C)C)c1 (relative stereo) | 110 to 113 °C
CC(=O)C(=CS(=O)(=O)N(C)C)c1cccc([N+](=O)[O-])c1 | 115 to 120 °C
S=C(c1ccc(Br)cc1)N1CCOCC1 | 135 to 137 °C
Oc1ccc(CCCn2ccnc2)cc1 | 158 to 160 °C
COc1ccc(-c2[nH]nc3c2C(=O)c2c(NC(=O)Cc4ccc(NC(=O)CN)cc4)cccc2-3)cc1 | 228 °C
COc1ccc(Cc2ccc(C(=O)N(C3CCCC3)C3CCCC3)cc2)cc1OC | 138 to 142 °C
CC[C@@H](Cc1ccc(OC)c(C(=O)NCc2ccc(Oc3ccc(F)c(F)c3)cc2)c1)C(=O)O | 118 to 120 °C
CCCCCCCCCCC[C@@H]1CC(O)=CC(=O)O1 | 86 to 87 °C
CCCCCS(=O)(=O)NC(=O)C(C)Cc1ccc(OCCOC)cc1Oc1ncc(C(F)(F)F)cc1Cl (stereo unspecified) | 136 to 138 °C
Cc1ccc(C(=O)N(C)C)cc1-c1nc(N(C)CCCN(C)C)nc2c1CNC(=O)N2c1c(F)cccc1F | 114 to 118 °C
CC(C)(C)NC(=O)[C@@H](N)C(C)(C)C | 78 to 80 °C
C#CCN(C(=O)c1cnccc1C(F)(F)F)S(=O)(=O)c1cccc(C)c1 | 111 to 114 °C
OC1CCC(c2ccc(OCCCCCCCCCCCBr)cc2)CC1 (stereo unspecified) | 100 to 101 °C
CCOC(=O)c1cc(CC)sc1Nc1cc(F)c(F)cc1[N+](=O)[O-] | 105 °C
CCOC(=O)C(C)(C)n1c(=O)[nH]c2ccc(Cl)cc2c1=O | 179 to 180 °C
CCc1nn2c(-c3ccc(Cl)cc3Cl)nc(C)nc2c1N(CC)CC | 98 to 99 °C
O=C1OC(=O)C2CC3=C(CC3)CC12 (stereo unspecified) | 81 to 83 °C
CC(C)NC1=NS(=O)(=O)c2cc(C(=O)O)ccc2N1 | > 310 °C
CCCOc1ccc(OCCCCC(=O)O)c(C=O)c1O | 78 to 79 °C
Cc1ccc2c(c1)C(C(F)(F)F)(C(F)(F)F)c1cc(C)ccc1O2 | 136 to 137 °C
Brc1ccc2c3c(cccc13)C(NCCCCn1ccnc1)=N2 | 145 to 147 °C
CCOCC(COCC)Oc1ccc(/C=C/C(=O)O)c(Oc2ncc(C(F)(F)F)cc2Cl)c1 | 62 to 63 °C
CCCCNc1nc(C)nc2c1nnn2-c1ccc(C(C)C)cc1Br | 149 to 151 °C
COC(=O)c1cc(N(CCBr)CCBr)c(S(C)(=O)=O)cc1[N+](=O)[O-] | 161 to 162 °C

Structure (SMILES) | melting point
CC(C)Sc1cc2c(cc1Cl)N=C(c1ccncc1)NS2(=O)=O | 254 to 256 °C
CCCCSC(=NC(=O)N(CCC)CCC)NC(=O)NC(C)(C)C | 92 to 94 °C
O=C(NCCN1CCC2(CC1)C(=O)NCN2c1ccccc1)c1ccc(Cl)cc1 | 201 °C
CC(C)(C)c1ccc(OCC(O)CN2CCC3(CC2)CSC2=C(O3)c3cc(N4CCOCC4)ccc3C(=O)C2=O)cc1 (stereo unspecified) | 107 to 109 °C
O=C(CCl)Nc1ccc(Sc2ccc([N+](=O)[O-])cc2)cc1 | 217 to 219 °C
CCN1CCCC1CNC(=O)c1cc(NS(C)(=O)=O)ccc1OC (stereo unspecified) | 171 to 172 °C
CS(=O)(=O)Nc1cc(C(O)CNCCCCCCOCC/C=C/c2ccc(F)cc2)ccc1O (stereo unspecified) | 79 to 80 °C
CC(Cc1ccc(F)cc1)(NC(=O)CNC(=O)CN)c1ccc(F)cc1 (stereo unspecified) | 139 to 140 °C
C=CCOc1cc(Cl)ccc1C(=O)OC | 47 to 55 °C
CC(C)Nc1nc2c(Br)c(Cl)c(Cl)cc2n1[C@H]1O[C@@H](CO)[C@H](O)[C@@H]1O | 221 to 222 °C
CCNC(=O)c1ccc(C=O)cc1 | 100 °C
O=C(NCCBr)C1=C(C(=O)Nc2cc(OC3CCCC3)c(Cl)cc2F)CCCC1 | 140 to 142 °C
CCCCCCCCC(=O)NCC(=O)O | 106 to 109 °C
O=C(Nc1ccc(-n2nc(C(F)(F)F)cc2C(F)(F)F)c(C(F)(F)F)c1)c1ccc(Cl)cc1 | 65 to 67 °C
CCCCCCCCCCCCCCCCCCOc1cc2ccccc2c(N=Nc2ccc(OC)cc2)c1O | 95 to 97 °C
Cc1cccc(-c2ccc(S(=O)(=O)N3c4ccccc4CC3C(=O)O)cc2)c1 (stereo unspecified) | 123 to 128 °C
O=C(CC(=O)c1cccc(C(F)(F)F)c1NC(=O)CCl)Nc1nccs1 | 192 °C
CC(C)(C)NC(=O)[C@@H]1CCCN1C(=O)[C@@H](O)[C@H](Cc1ccccc1)NC(=O)[C@H](CC(N)=O)NC(=O)COc1ccc(NC(=O)CN2CCOCC2)cc1 | 121 to 127 °C
COC(=O)c1c(O)cccc1OCCCCNC(=O)CCc1ccc(N2CC(=O)NS2(=O)=O)c(O)c1 | 85 to 90 °C
Fc1cccc(F)c1-c1cnc(-c2ccc(-c3ccc(OC(F)(F)F)cc3)cc2)nn1 | 199 to 202 °C
CCOCCNC(=O)OCCCc1ccc(OCCOC)cc1Oc1ncc(C(F)(F)F)cc1Cl | 66 to 68 °C
COc1ccc2c(c1)c(CCO)c(C)n2-c1ccnc2cc(Cl)ccc12 | 143 to 145 °C
O=[N+]([O-])c1ccc(-c2ccc(-c3ccc([N+](=O)[O-])cc3C(F)(F)F)o2)c(C(F)(F)F)c1 | 158 to 159 °C
COC(=O)c1nc(-c2ccccc2)n2c1CN=C(c1ccccc1F)c1cc(Cl)ccc1-2 | 208 to 209 °C

Further lines, results first:

melting point | Structure (SMILES)
135 to 140 °C | CS(=O)(=O)OCc1cc(-c2ccc3c(c2)CCO3)nn(CC=Cc2ccc(Cl)cc2)c1=O
206 °C | Nc1ccc2ccc(Oc3ccccc3F)nc2n1
246 to 249 °C | COc1ccc(-c2ccnc3c(C(N)=O)ncn23)cc1
169 to 170 °C | CC(C)C(CN(C)c1ccccc1)NS(=O)(=O)c1c(Cl)cc(Cl)cc1Cl (stereo unspecified)
86 to 87 °C | CS(=O)(=O)c1ccnc(Oc2ccccc2)n1
182 to 184 °C | COc1cc2c(cc1OC)C(C=Cc1ccc([N+](=O)[O-])cc1)=NN(C(C)=O)C(C)C2 (stereo unspecified)
110 to 111 °C | C=CCC1(C(=O)NCc2ccccn2)c2ccccc2-c2ccccc21
95 to 96 °C | CCOC(=O)Cc1cccc(-c2nc(COc3ccc(CCl)cc3OC)c(C)o2)c1
168 °C | O=C(CN1CCC(NC(=O)c2ccccc2)CC1)c1ccccc1
158 to 160 °C | Clc1ccc2nc(NC3CCCCC3)n3nc(-c4ccco4)nc3c2c1
221 to 223 °C | CCc1[nH]n(C2CCCC2)c2nc(Cc3ccc([N+](=O)[O-])cc3)nc(=O)c1-2
132 °C | CC(Oc1ccc2nc(N)sc2c1)c1cc(F)cc(F)c1 (stereo unspecified)
112 to 114 °C | CCOC(=O)c1ccc2c(c1)CCC(=Cc1cccnc1)C2=O
196 to 197 °C | Cn1ncnc1COc1nn2c(-c3ccccc3F)nncc2c1-c1cccs1
163 to 164 °C | Brc1ccc2c(c1)c1cc(Br)ccc1n2-c1ccccc1
126 to 145 °C | COc1cc2c(cc1Nc1ncc(Cl)c(N[C@H]3[C@@H](C(N)=O)[C@@H]4C=C[C@H]3C4)n1)CCN(CC(=O)N1CCCC1)CC2
145 to 146 °C | CCOC(=O)Nc1ccc(N2CCC(=O)CC2)cc1
263 to 270 °C | O=c1[nH]c2ccc(S(=O)(=O)N3CCN(c4ccccn4)CC3)c3c2c2c(cccc12)C3
110 to 113 °C | O=[N+]([O-])c1cc(CO)ccc1Sc1nccnc1Cl
185 to 186 °C | Cc1nc(N2CCN(CCCC(F)(F)F)C2=O)sc1-c1cc[nH]n1
168 °C | O=[N+]([O-])c1ccc(N(CCBr)S(=O)(=O)c2ccccc2)cc1
270 to 272 °C | N#Cc1cnc2cc(O)c(O)cc2c1Nc1ccc(Cl)cc1F
235 °C | CC1(C)CC(=O)Nc2c(CCN3CCN(C4=NS(=O)c5ccccc54)CC3)cc(F)cc21 (stereo unspecified)
74 to 76 °C | CCc1cn(C(C)C(=O)N(C)C)nc1-c1ccccc1Cl (stereo unspecified)

melting point | Structure (SMILES)
235 to 237 °C | Cc1c(Nc2c(C#N)cncc2-c2cc3cc(C=O)ccc3o2)ccc2[nH]ccc12
> 250 °C | CC(C)n1nc(-c2cc(C(N)=O)c(N)nc2-c2ccccc2)ccc1=O
263 °C | O=C(O)c1cnn2c(C(F)F)cc(-c3ccc(Cl)c(Cl)c3)nc12
> 260 °C | CCc1nc2c(N)nc3cc(/C=C/C(=O)N4CCOCC4)ccc3c2n1CC1CCOCC1
139 to 140 °C | O=C(Nc1ccccn1)C(CC1CCCC1)c1ccc(-c2cccnc2)cc1 (stereo unspecified)
271 to 273 °C | Cc1nnc2n1-c1ccc(N)cc1C(c1ccccc1Cl)=CC2
128 to 129 °C | COc1ccc(C(=O)N2c3ccccc3C(N3CCc4ccccc4C3)CC2C)cc1OC (stereo unspecified)
170 to 171 °C | CCC1CC(NC(C)=O)=NN1c1cccc(Cl)n1 (stereo unspecified)
119 to 121 °C | O=C(NCCN1CCC(=C(c2ccc(F)cc2)c2ccc(F)cc2)CC1)C1CSC(c2cccnc2)N1 (stereo unspecified)
68 to 69 °C | Cc1ccc(S(=O)(=O)Oc2ccc(CN3CCOCC3)nc2)cc1
103 to 105 °C | NCCCCC(=O)N1CCC(c2[nH]nc3c2C(=O)c2c(NC(=O)NN4CCOCC4)cccc2-3)CC1
140 to 144 °C | N#Cc1ccccc1C=CCN1CCc2nc(N)sc2CC1
117 to 118 °C | CCCC[C@]1(CC)CS(=O)(=O)c2cc(O)c(O)cc2[C@@H](c2ccccc2)N1
164 to 165 °C | COCCN1CC(C(=O)O)N(S(=O)(=O)c2ccc(OC)cc2)Cc2ccccc21 (stereo unspecified)
205 to 208 °C | COc1cc(CN2CC[C@H](O)C2)ccc1-c1nc2c(N[C@H]3[C@@H](C(N)=O)[C@@H]4C=C[C@H]3C4)c(Cl)cnc2[nH]1
86 to 88 °C | O=C(/C=C/c1ccccc1Sc1ccc(Cl)cc1)NC1CCC(O)CC1 (stereo unspecified)
120 to 125 °C | CCN(CC)CCn1nc2c3c(c(CNS(C)(=O)=O)ccc31)Sc1ccccc1-2
203 to 204 °C | Cc1ccc(C(=O)c2cnn3c(-c4cccnc4)ccnc23)cc1
199 to 201 °C | COc1cc(OCc2ccccn2)ccc1/C=C/c1cc(/C=C/c2cc3ccccc3o2)n[nH]1
107 to 108 °C | N#CCCNC(=O)c1cccc(-c2cccc3oc(Cc4cccc(C(F)(F)F)c4)cc23)c1
230 to 232 °C | Cc1cccc(C(C)C)c1NC(=O)NC1(c2cccs2)CCCCC1
149 to 150 °C | FC(F)(F)c1ccc(C#Cc2ccc(C#Cc3cc4ccccc4s3)s2)cc1
54 to 56 °C | CC(Br)C(=O)NC1=NN(c2cccc(C(F)(F)F)c2)CC1 (stereo unspecified)
190 to 191 °C | CCCOc1ccccc1-c1ncc(C(=O)NC)c(=O)[nH]1
